In patent US20110053897A1 (IRM LLC, priority 2009, published 2011):

These compounds were tested against T1, Syk kinase (Homo sapiens, UniProt P43405) (assay: Syk kinase inhibition, Caliper LabChip off-chip mobility-shift kinase assay). Conditions: Caliper LabChip assay; read-out: Syk Enzyme IC50.
T1 construct: purchased
Format: biochemical
Method: Compounds of the examples and Table 1 provided herein were assayed to measure their capacity to inhibit Syk kinase.
Compounds of the examples and Table 1 provided herein were assessed for their ability to inhibit Syk kinase by utilizing Caliper Life Sciences' proprietary LabChip™ technology. The off-chip incubation mobility-shift kinase assay uses a microfluidic chip to measure the conversion of a fluorescent peptide substrate to a phosphorylated product. The reaction mixture, from a microtiter plate well, is introduced through a capillary sipper onto the chip, where the nonphosphorylated substrate and phosphorylated product are separated by electrophoresis and detected via laser induced fluorescence. […] The phosphorylated product migrates through the chip faster than the non-phosphorylated substrate, and signals from the two forms of the peptide appear as distinct peaks. Caliper's data analysis software (HTSWA) determines peak heights, from which the ratio of product to the peak sum P/(P+S) and percent (%) conversion is calculated. This value is used to compare compound wells to control wells present on the plate, and thereby determine the % inhibition values for the compound. The formula used to calculate % inhibition is as follows, where C100% is the average % conversion of the 100% activity wells and Co% is the average % conversion of the 0% activity wells: (1−(% conversionofsample−C0%)/(C100%−C0%))*100.
Compounds (10 mM stocks in 100% DMSO) are diluted to a final concentration of 5 μM for single point inhibition experiments, and a series dilution of 10, 3, 1, 0.3, 0.1, 0.03, 0.01, 0.003, 0.001, 0.0003, 0.0001, and 0.00003 μM were made for IC50 determination. Generally, 12 μL of enzyme buffer containing purified kinase (various amount; various suppliers), 100 mM HEPES, pH 7.5, 1 mM DTT (Calbiochem, 2333153), 10 mM MgCl2 (Sigma, M-1028) or 10 mM MnCl2 (Sigma, M-1787) (assay specific), and 0.002% Brij-35 (Sigma, B4184) are added to each well. Compound and enzyme are allowed to pre-incubate for 15 minutes. 12 μL of peptide/ATP buffer containing 100 mM HEPES, pH 7.5, 1.5 μM fluorescein-labeled peptide (specific to kinase of interest), ATP (at KM apparent, Sigma, A9187), and 0.002% Brij-35 is then added to each well to initiate the reaction. The final concentration of DMSO in the well is 4%. Generally, reactions are incubated for 1 to 1.5 hours at room temperature to obtain adequate conversion of peptide to phosphorylated product in the linear range of the reaction. Reactions are terminated with the addition of 45 μL of Stop Buffer (containing 20 mM EDTA). Plates are then read on the LabChip 3000 using a 12-sipper LabChip. % conversion values and % inhibition values are obtained as provided and IC50 curves of compounds are generated using GraphPad Prism Version 4 or 5.01, or XLfit Version 4.3.2. When using GraphPad Prism, a nonlinear curve fit using the sigmoidal dose response—variable slope fit was used to graph IC50 curves and determine IC50 values and hillslopes. When using XLfit, Fit Model 205 (4-Parameter Logistic Model) is used to generate and fit the IC50 curve.

SMILES | IC50
CC(C)(C)Nc1nc(Nc2cc(CN3CC(O)C3)ccn2)cc2ccn(CCO)c(=O)c12 [Compound No. 600, 8-(tert-butylamino)-6-(4-((3-hydroxyazetidin-1-yl)methyl)pyridin-2-ylamino)-2-(2-hydroxyethyl)-2,7-naphthyridin-1(2H)-one] | 18.6 nM
CC(C)(C)Nc1nc(Nc2cc(C(O)C(F)(F)F)ccn2)cc2ccn(CCO)c(=O)c12 (stereo not shown) [Compound No. 602, 8-(tert-butylamino)-2-(2-hydroxyethyl)-6-(4-(2,2,2-trifluoro-1-hydroxyethyl)pyridin-2-ylamino)-2,7-naphthyridin-1(2H)-one] | 65 nM
COc1ccc(Nc2cc3ccn(CCO)c(=O)c3c(NC(C)(C)C)n2)nc1 [Compound No. 606, 8-(tert-butylamino)-2-(2-hydroxyethyl)-6-(5-methoxypyridin-2-ylamino)-2,7-naphthyridin-1(2H)-one] | 793 nM
CC(C)(C)Nc1nc(Nc2cc(C3(O)COC3)ccn2)cc2ccn(CCO)c(=O)c12 [Compound No. 609, 8-(tert-butylamino)-2-(2-hydroxyethyl)-6-(4-(3-hydroxyoxetan-3-yl)pyridin-2-ylamino)-2,7-naphthyridin-1(2H)-one] | 12 nM

The remaining lines, values ahead:

IC50 | SMILES
72 nM | CCn1ccc2cc(Nc3cc(C)ccn3)nc(N[C@@H]3CC[C@H](CO)C3)c2c1=O (stereo in doubt) [compound 789]
29 nM | CC(C)(C)Nc1nc(Nc2cc(CO)ncn2)cc2ccn(CCO)c(=O)c12 [Compound No. 607, 8-(tert-butylamino)-2-(2-hydroxyethyl)-6-(6-(hydroxymethyl)pyrimidin-4-ylamino)-2,7-naphthyridin-1(2H)-one]

Same assay, conditions: read-out: Syk Enzyme IC50

SMILES | IC50
Cc1ccnc(Nc2cc3cc[nH]c(=O)c3c(N[C@@H]3CCC[C@H]3O)n2)c1 (racemic) [compound 267] | 56 nM
Cc1ccnc(Nc2cc3cc[nH]c(=O)c3c(N[C@H]3CCC[C@H]3O)n2)c1 (racemic) [compound 271] | 26 nM
O=c1[nH]ccc2cc(Nc3ccccn3)nc(N[C@@H]3CCC[C@H]3O)c12 (racemic) [compound 277] | 860 nM
O=c1[nH]ccc2cc(Nc3ccccn3)nc(N[C@H]3CCC[C@H]3O)c12 (racemic) [compound 280] | 62 nM
O=c1[nH]ccc2cc(C3CCNCC3)nc(Nc3ccc(N4CCOCC4)cc3)c12 [compound 2] | 249 nM
CC(C)N1CCC(c2cc3cc[nH]c(=O)c3c(Nc3ccc(N4CCOCC4)cc3)n2)CC1 [compound 3] | 202 nM
COc1cncc(-c2cc3cc[nH]c(=O)c3c(Nc3ccc(N4CC5(CNC5)C4)cc3)n2)n1 [compound 5] | 316 nM
COc1cncc(-c2cc3cc[nH]c(=O)c3c(Nc3ccc(C4CCN(C(=O)C(O)C(C)C)CC4)c(C)c3)n2)n1 (stereo not shown) [compound 6] | 398 nM
COc1cncc(-c2cc3cc[nH]c(=O)c3c(Nc3ccc(CCN4CCN5CCCC5C4)cc3)n2)n1 (stereo not shown) [compound 7] | 53 nM
COCC(C)(C)C(=O)N1CCC(c2ccc(Nc3nc(-c4cncc(OC)n4)cc4cc[nH]c(=O)c34)cc2C)CC1 [compound 8] | 253 nM
COCCN1CCC(c2cc3cc[nH]c(=O)c3c(Nc3ccc(N4CCOCC4)cc3)n2)CC1 [compound 9] | 299 nM
COc1cncc(-c2cc3cc[nH]c(=O)c3c(Nc3ccc(C4=CCSCC4)c(C)c3)n2)n1 [compound 12] | 3430 nM
COc1cncc(-c2cc3cc[nH]c(=O)c3c(Nc3ccc(C4=CCNCC4)c(C)c3)n2)n1 [compound 13] | 38 nM
O=c1[nH]ccc2cc(C3=CCSCC3)nc(Nc3ccc(N4CCOCC4)cc3)c12 [compound 14] | 809 nM
O=c1[nH]ccc2cc(C3CCSCC3)nc(Nc3ccc(N4CCOCC4)cc3)c12 [compound 15] | 702 nM
COCC1(C(=O)N2CCC(c3ccc(Nc4nc(-c5cncc(OC)n5)cc5cc[nH]c(=O)c45)cc3C)CC2)CC1 [compound 16] | 99 nM
COc1cncc(-c2cc3cc[nH]c(=O)c3c(Nc3ccc(CCN4CCN(C(C)C)CC4)cc3)n2)n1 [compound 21] | 86 nM
COc1cncc(-c2cc3cc[nH]c(=O)c3c(Nc3ccc(CCN4CCNC5(CCCC5)C4)cc3)n2)n1 [compound 22] | 78 nM
COc1cncc(-c2cc3cc[nH]c(=O)c3c(Nc3ccc(CCn4cncn4)cc3)n2)n1 [compound 24] | 122 nM
COc1cncc(-c2cc3cc[nH]c(=O)c3c(Nc3ccc(CCC(=O)N4CCOCC4)cc3)n2)n1 [compound 25] | 24 nM
COCCC(=O)N1CCC(c2ccc(Nc3nc(-c4cncc(OC)n4)cc4cc[nH]c(=O)c34)cc2)CC1 [compound 26] | 72 nM
COCCOCC(=O)N1CCC(c2ccc(Nc3nc(-c4cncc(OC)n4)cc4cc[nH]c(=O)c34)cc2)CC1 [compound 27] | 44 nM
CCOCC(=O)N1CCC(c2ccc(Nc3nc(-c4cncc(OC)n4)cc4cc[nH]c(=O)c34)cc2)CC1 [compound 28] | 115 nM
CNC(=O)C(C)(C)c1ccc(Nc2nc(-c3cnc4nccn4c3)cc3cc[nH]c(=O)c23)cc1 [compound 29] | 30 nM
CCN1CCN(CCc2ccc(Nc3nc(-c4cncc(OC)n4)cc4cc[nH]c(=O)c34)cc2)CC1C (stereo not shown) [compound 33] | 34 nM

Next, values leading:

IC50 | SMILES
98 nM | Cc1ccnc(Nc2cc3ccn(C)c(=O)c3c(N[C@H]3CCC[C@H]3O)n2)c1 (racemic) [compound 324]
39 nM | Cn1ccc2cc(Nc3cnccn3)nc(N[C@H]3CCC[C@H]3O)c2c1=O (racemic) [compound 328]
18 nM | CCn1ccc2cc(Nc3cnccn3)nc(N[C@H]3CCC[C@H]3O)c2c1=O (racemic) [compound 354]
67 nM | CCn1ccc2cc(Nc3cc(C)ccn3)nc(N[C@H]3CCC[C@H]3O)c2c1=O (racemic) [compound 360]
16 nM | Cc1ccnc(Nc2cc3ccn(CCO)c(=O)c3c(N[C@H]3CCC[C@H]3O)n2)c1 (racemic) [compound 368]
476 nM | CCn1ccc2cc(Nc3cc(C)ccn3)nc(N[C@H]3CCCC[C@@H]3O)c2c1=O (racemic) [compound 406]
301 nM | CCn1ccc2cc(Nc3cnccn3)nc(N[C@H]3CCCC[C@@H]3O)c2c1=O (racemic) [compound 407]
324 nM | CCn1ccc2cc(Nc3cc(C)ccn3)nc(N[C@H]3CCCC[C@H]3O)c2c1=O (racemic) [compound 408]
128 nM | CCn1ccc2cc(Nc3cnccn3)nc(N[C@H]3CCCC[C@H]3O)c2c1=O (racemic) [compound 409]
49 nM | Cc1ncc(-c2cc3cc[nH]c(=O)c3c(Nc3ccc([C@H]4CC[C@H](N5CCOCC5)CC4)cc3)n2)cn1 [compound 1]
489 nM | Nc1ncc(-c2cc3ccn(CC4CC4(F)F)c(=O)c3c(Nc3ccc(N4CCOCC4)cc3)n2)cn1 (stereo not shown) [compound 4]
266 nM | O=c1[nH]ccc2cc(-c3cncnc3)nc(Nc3ccc([C@H]4CC[C@@H](N5CCOCC5)CC4)cc3)c12 [compound 10]
652 nM | Cc1ncc(-c2cc3cc[nH]c(=O)c3c(Nc3ccc([C@H]4CC[C@@H](N5CCOCC5)CC4)cc3)n2)cn1 [compound 11]
163 nM | Cc1ncc(-c2cc3cc[nH]c(=O)c3c(Nc3ccc(N4C[C@@H](C)O[C@@H](C)C4)nc3)n2)cn1 [compound 17]
245 nM | C[C@@H]1CN(c2ccc(Nc3nc(-c4cncnc4)cc4cc[nH]c(=O)c34)cn2)C[C@H](C)O1 [compound 18]
222 nM | Cc1nc(-c2cc3cc[nH]c(=O)c3c(Nc3ccc(N4C[C@@H](C)O[C@@H](C)C4)nc3)n2)cnc1N [compound 19]
318 nM | COc1cncc(-c2cc3cc[nH]c(=O)c3c(Nc3ccc(N4CCC(OC)CC4)cc3)n2)n1 [compound 20]
39 nM | COc1cncc(-c2cc3cc[nH]c(=O)c3c(Nc3ccc(CCN4CCC(OC)CC4)cc3)n2)n1 [compound 23]
8 nM | COCCN1CCC(c2ccc(Nc3nc(-c4cnc5nccn5c4)cc4cc[nH]c(=O)c34)cc2C)CC1 [compound 30]
1770 nM | CN1CCC(Nc2nc(-c3cnc(N)nc3)cc3ccn(C)c(=O)c23)CC1 [compound 31]
140 nM | CC(C)Nc1nc(-c2cnc(N)nc2)cc2ccn(CCO)c(=O)c12 [compound 32]
